Patent US7741486B1, “Water-soluble titanium alkoxide material” (Sandia Corporation, priority 2008, dated 2010)

Format: physicochemical
Description: The bidentate nature of the OC6H6N (referred to herein as OPy) group, the steric bulk of the OC6H2(CH2N(CH3)2)3-2,4,6 (referred to herein as TAP) ligand, and the amino functionality of the OC6H2(CH2N(CH3)2)3-2,4,6 ligand combine to effectively limit conventional hydrolysis of the alkoxide while maintaining solubility in aqueous media. Therefore, unlike many other similar compounds, the compound of the present invention is both water soluble and stable in an aqueous solution.
The inhibition of hydrolysis at ligand sites even when the molecule is dispersed in water is attributed to steric constraints imposed by the bidentate pyridine carbinoxide (OPy) and monodentate tri-amino-phenoxide (TAP) groups. It is believed that the amino groups present on the TAP ligand further facilitate water solubilization through H-bonding with the water. The inert character of the molecule to conventional hydrolysis chemistry enables an evaluation of photoexcitation as a means to influence the evolution of intermolecular bond formation.

In the case of `CN(C)Cc1cc(CN(C)C)c([O][Ti]([O]Cc2ccccn2)([O]Cc2ccccn2)[O]c2c(CN(C)C)cc(CN(C)C)cc2CN(C)C)c(CN(C)C)c1` [(OC6H6N)2Ti(OC6H2(CH2N(CH3)2)3-2,4,6)2], the “stability in aqueous solution (resistance to conventional hydrolysis)” value is reported as “water-stable” and the water solubility is reported as “water-soluble”.
